According to PubChem BioAssay AID1918935 (Molecular Pharmacology Branch, DTP, NCI, 2023):
Several values for one entry are separate records, joined by “and”; a condition that tells them apart may be missing. Equal entries are not always repeated.

System: 324938-238-R-J1-PDC complex spheroid viability
Assay: Anticancer human tumor 324938-238-R-J1-PDC patient-derived bladder carcinoma cell line growth inhibition
Conditions: for viability, T/C: stronger effect = lower value; active = viability on the fitted dose curve at most 10% of control; inactive = the rest
In short: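 Drug combinations with the LSD1 inhibitor iadademstat tested on tumor cells co-cultured as spheroids with endothelial cells and mesenchymal stem cells. Concentrations descended in half-log increments from clinical Cmax or 10 microM.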

[1] = curve of first compound, second compound 0.1 µM
[2] = curve of first compound, second compound 0.316 µM
[3] = curve of first compound, second compound 1 µM
[4] = curve of first compound, second compound 3.16 µM
[5] = curve of first compound, second compound 10 µM
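Note: spheroids also contain HUVEC and human MSCs and agents combined with iadademstat; spheroids exposed to agents for 7 days before readout.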

CC(C)CC(NC(=O)CNC(=O)c1cc(Cl)ccc1Cl)B1OC(=O)CC(CC(=O)O)(C(=O)O)O1 (configuration not stated) + NC1CCC(NC2CC2c2ccccc2)CC1
inactive: viability, T/C (second compound 0.1 µM, first compound 0.000316 µM) 78.5% | viability, T/C (second compound 0.1 µM, first compound 0.001 µM) 76.7% | viability, T/C (second compound 0.1 µM, first compound 0.00316 µM) 39.9% | viability, T/C (second compound 0.316 µM, first compound 0.000316 µM) 88.5% | viability, T/C (second compound 0.316 µM, first compound 0.001 µM) 68.9% | viability, T/C (second compound 0.316 µM, first compound 0.00316 µM) 37.8% | viability, T/C (second compound 1 µM, first compound 0.000316 µM) 87.1% | viability, T/C (second compound 1 µM, first compound 0.001 µM) 62.5% | viability, T/C (second compound 1 µM, first compound 0.00316 µM) 44.2% | viability, T/C (second compound 1 µM, first compound 0.01 µM) 5.29% | viability, T/C (second compound 3.16 µM, first compound 0.000316 µM) 80.2% | viability, T/C (second compound 3.16 µM, first compound 0.001 µM) 65.2% | viability, T/C (second compound 3.16 µM, first compound 0.00316 µM) 33% | viability, T/C (second compound 10 µM, first compound 0.000316 µM) 78.3% | viability, T/C (second compound 10 µM, first compound 0.001 µM) 76.2% | viability, T/C (second compound 10 µM, first compound 0.00316 µM) 22.7%
2.3 nM: IC50 [1]
1.72 nM: IC50 [4]
active: viability, T/C (second compound 0.1 µM, first compound 0.01 µM) 5.51% | viability, T/C (second compound 0.1 µM, first compound 0.0316 µM) 0.09% | viability, T/C (second compound 0.1 µM, first compound 0.1 µM) 0.14% | viability, T/C (second compound 0.316 µM, first compound 0.01 µM) 6.24% | viability, T/C (second compound 0.316 µM, first compound 0.0316 µM) 0.11% | viability, T/C (second compound 0.316 µM, first compound 0.1 µM) 0.14% | viability, T/C (second compound 1 µM, first compound 0.0316 µM) 0.06% | viability, T/C (second compound 1 µM, first compound 0.1 µM) 0.13% | viability, T/C (second compound 3.16 µM, first compound 0.01 µM) 3.57% | viability, T/C (second compound 3.16 µM, first compound 0.0316 µM) 0.05% | viability, T/C (second compound 3.16 µM, first compound 0.1 µM) 0.16% | viability, T/C (second compound 10 µM, first compound 0.01 µM) 2.57% | viability, T/C (second compound 10 µM, first compound 0.0316 µM) 0.13% | viability, T/C (second compound 10 µM, first compound 0.1 µM) 0.21%
1.75 nM: IC50 [5]
1.97 nM: IC50 [2]
1.98 nM: IC50 [3]

NS(=O)(=O)OCC1CC(n2ccc3c(NC4CCc5ccccc54)ncnc32)CC1O (configuration not stated) + NC1CCC(NC2CC2c2ccccc2)CC1
336 nM: IC50 [1] | IC50 [2]
inactive: viability, T/C (second compound 0.1 µM, first compound 0.00949 µM) 81.7% | viability, T/C (second compound 0.1 µM, first compound 0.03 µM) 78.5% | viability, T/C (second compound 0.1 µM, first compound 0.0949 µM) 84.7% | viability, T/C (second compound 0.1 µM, first compound 0.3 µM) 54.2% | viability, T/C (second compound 0.1 µM, first compound 0.949 µM) 11.7% | viability, T/C (second compound 0.1 µM, first compound 3 µM) 11.9% | viability, T/C (second compound 0.316 µM, first compound 0.00949 µM) 86.5% | viability, T/C (second compound 0.316 µM, first compound 0.03 µM) 88.1% | viability, T/C (second compound 0.316 µM, first compound 0.0949 µM) 79.9% | viability, T/C (second compound 0.316 µM, first compound 0.3 µM) 54.7% | viability, T/C (second compound 0.316 µM, first compound 0.949 µM) 14.3% | viability, T/C (second compound 0.316 µM, first compound 3 µM) 11.5% | viability, T/C (second compound 1 µM, first compound 0.00949 µM) 79.2% | viability, T/C (second compound 1 µM, first compound 0.03 µM) 84.3% | viability, T/C (second compound 1 µM, first compound 0.0949 µM) 82.4% | viability, T/C (second compound 1 µM, first compound 0.3 µM) 60.1% | viability, T/C (second compound 1 µM, first compound 0.949 µM) 15.7% | viability, T/C (second compound 1 µM, first compound 3 µM) 15.9% | viability, T/C (second compound 3.16 µM, first compound 0.00949 µM) 77.6% | viability, T/C (second compound 3.16 µM, first compound 0.03 µM) 74.5% | viability, T/C (second compound 3.16 µM, first compound 0.0949 µM) 83.3% | viability, T/C (second compound 3.16 µM, first compound 0.3 µM) 50.9% | viability, T/C (second compound 3.16 µM, first compound 0.949 µM) 15.5% | viability, T/C (second compound 3.16 µM, first compound 3 µM) 15.8% | viability, T/C (second compound 10 µM, first compound 0.00949 µM) 86.3% | viability, T/C (second compound 10 µM, first compound 0.03 µM) 72.8% | viability, T/C (second compound 10 µM, first compound 0.0949 µM) 79.9% | viability, T/C (second compound 10 µM, first compound 0.3 µM) 52.2% | viability, T/C (second compound 10 µM, first compound 0.949 µM) 16.3% | viability, T/C (second compound 10 µM, first compound 3 µM) 13.3%
323 nM: IC50 [5]
390 nM: IC50 [3]
309 nM: IC50 [4]

CC(C)CC(NC(=O)CNC(=O)c1cc(Cl)ccc1Cl)B1OC(=O)CC(CC(=O)O)(C(=O)O)O1 (configuration not stated)
active: viability, T/C (compound 0.01 µM) 5.09% and 2.42% | viability, T/C (compound 0.0316 µM) 0.23% and 0.77% | viability, T/C (compound 0.1 µM) 0.23% and 0.24%
inactive: viability, T/C (compound 0.000316 µM) 104% and 111% | viability, T/C (compound 0.001 µM) 106% and 77.7% | viability, T/C (compound 0.00316 µM) 38.2% and 23.3%
2.58 nM and 1.79 nM: IC50 (curve of compound)
